28 compounds from patent US12528802B2, “Heterocyclic compound” (Takeda Pharmaceutical Company Limited, priority 2019, dated 2026) can be followed below.

The target in the assay is T1, glucosylceramide synthase (Homo sapiens, UniProt Q16739).
T1 construct: made in house; host or cells: Expi293F cells (transient expression, pcDNA3.3-TOPO vector); microsome fraction used as enzyme source
T1 sequence (Q16739 1-394): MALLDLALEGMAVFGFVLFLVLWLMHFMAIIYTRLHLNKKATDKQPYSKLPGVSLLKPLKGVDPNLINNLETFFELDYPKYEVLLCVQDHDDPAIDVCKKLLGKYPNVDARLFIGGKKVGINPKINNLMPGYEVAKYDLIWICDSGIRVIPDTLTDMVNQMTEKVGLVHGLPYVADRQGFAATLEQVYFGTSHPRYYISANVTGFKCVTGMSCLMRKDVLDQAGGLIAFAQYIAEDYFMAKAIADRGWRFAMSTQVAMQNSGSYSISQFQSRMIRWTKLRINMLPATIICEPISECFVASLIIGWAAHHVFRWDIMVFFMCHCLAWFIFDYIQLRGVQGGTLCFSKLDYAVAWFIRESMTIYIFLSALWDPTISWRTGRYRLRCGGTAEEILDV
The assay is described as follows: Glucosylceramide synthase (GCS) enzyme assay, microsome fraction, C8 glucosylceramide quantified by Rapidfire MS/MS. The conditions noted are these: test compound 10 μM; 1.7 μM UDP-glucose, 3 μM C8 ceramide; room temperature 60 min; read-out: GCS enzyme inhibitory rate at 10 μM (%) (% of control). Format: biochemical. The essentials: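 Test compound, 10 μM final, was run against human GCS from transfected Expi293F microsome fractions, using substrate solution of 6 μM C8 ceramide (in DOPC liposomes) plus 3.4 μM UDP-glucose, pH 7.5 Tris buffer, 60 min, room temperature. Product C8 glucosylceramide measured by Rapidfire MS/MS against an internal standard, % inhibition referenced to no-enzyme and DMSO wells.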
On to `O=C1c2ccnc(-c3ccc(F)cc3OCC(F)(F)F)c2CN1c1cnn(CC(F)(F)F)c1` [Example 83, 4-[4-fluoro-2-(2,2,2-trifluoroethoxy)phenyl]-2-[1-(2,2,2-trifluoroethyl)-1H-pyrazol-4-yl]-2,3-dihydro-1H-pyrrolo[3,4-c]pyridin-1-one], for which the inhibition at 10 µM is 91%.

Take `O=C1c2cncc(-c3ccccc3OCC(F)(F)F)c2CN1c1ccc(F)cc1` [Example 87, 2-(4-fluorophenyl)-7-[2-(2,2,2-trifluoroethoxy)phenyl]-1,2-dihydro-3H-pyrrolo[3,4-c]pyridin-3-one]: the inhibition at 10 µM came out at 86%.

Regarding `CS(=O)(=O)c1ccc(N2Cc3c(ccnc3-c3ccc(F)cc3OCC(F)(F)F)C2=O)cc1` [Example 88, 4-[4-fluoro-2-(2,2,2-trifluoroethoxy)phenyl]-2-[4-(methanesulfonyl)phenyl]-2,3-dihydro-1H-pyrrolo[3,4-c]pyridin-1-one], the inhibition at 10 µM is 89%.

For the compound `Cc1ccc(N2Cc3c(ccnc3-c3ccc(F)cc3OCC(F)(F)F)C2=O)cn1` [Example 89, 4-[4-fluoro-2-(2,2,2-trifluoroethoxy)phenyl]-2-(6-methylpyridin-3-yl)-2,3-dihydro-1H-pyrrolo[3,4-c]pyridin-1-one], the inhibition at 10 µM is 96%.

Regarding `O=C1c2ccnc(-c3ccc(F)cc3OCC(F)(F)F)c2CN1c1ccc(OC(F)F)nn1` [Example 90, 2-[6-(difluoromethoxy)pyridazin-3-yl]-4-[4-fluoro-2-(2,2,2-trifluoroethoxy)phenyl]-2,3-dihydro-1H-pyrrolo[3,4-c]pyridin-1-one], the inhibition at 10 µM stood at 85%.

For the compound `O=C1c2ccnc(-c3ccncc3OCC(F)(F)F)c2CN1c1ccc(OC(F)F)cn1` [Example 91, 2-[5-(difluoromethoxy)pyridin-2-yl]-4-[3-(2,2,2-trifluoroethoxy)pyridin-4-yl]-2,3-dihydro-1H-pyrrolo[3,4-c]pyridin-1-one], the inhibition at 10 µM came out at 99%.

In the case of `Cc1nn(-c2ccc(F)cc2OCC(F)(F)F)c2c1C(=O)N(c1ccc(F)cc1)C2` [Example 92, 5-(4-fluorophenyl)-1-[4-fluoro-2-(2,2,2-trifluoroethoxy)phenyl]-3-methyl-5,6-dihydropyrrolo[3,4-c]pyrazol-4(1H)-one], the inhibition at 10 µM is 57%.

For `O=C1c2ccnc(-c3ccc(F)cc3OCC(F)(F)F)c2CN1c1cnn(CC(F)F)c1` [Example 93, 2-[1-(2,2-difluoroethyl)-1H-pyrazol-4-yl]-4-[4-fluoro-2-(2,2,2-trifluoroethoxy)phenyl]-2,3-dihydro-1H-pyrrolo[3,4-c]pyridin-1-one], the inhibition at 10 µM was found to be 95%.

For `O=C1c2ccnc(-c3ccc(F)cc3OCC(F)(F)F)c2CN1c1cnn(C2CC2)c1` [Example 94, 2-(1-cyclopropyl-1H-pyrazol-4-yl)-4-[4-fluoro-2-(2,2,2-trifluoroethoxy)phenyl]-2,3-dihydro-1H-pyrrolo[3,4-c]pyridin-1-one], the inhibition at 10 µM worked out at 97%.

In the case of `CC(C)Cn1cc(N2Cc3c(ccnc3-c3ccc(F)cc3OCC(F)(F)F)C2=O)cn1` [Example 96, 4-[4-fluoro-2-(2,2,2-trifluoroethoxy)phenyl]-2-[1-(2-methylpropyl)-1H-pyrazol-4-yl]-2,3-dihydro-1H-pyrrolo[3,4-c]pyridin-1-one], the inhibition at 10 µM was 99%.

As for `CC(C)n1cc(N2Cc3c(ccnc3-c3ccc(F)cc3OCC(F)(F)F)C2=O)cn1` [Example 97, 4-[4-fluoro-2-(2,2,2-trifluoroethoxy)phenyl]-2-[1-(propan-2-yl)-1H-pyrazol-4-yl]-2,3-dihydro-1H-pyrrolo[3,4-c]pyridin-1-one], the inhibition at 10 µM stood at 96%.

As for `O=C1c2ccnc(-c3ccc(F)cc3OCC(F)(F)F)c2CN1c1ccc(OC2CCOCC2)cc1` [Example 98, 4-[4-fluoro-2-(2,2,2-trifluoroethoxy)phenyl]-2-{4-[(oxan-4-yl)oxy]phenyl}-2,3-dihydro-1H-pyrrolo[3,4-c]pyridin-1-one], the inhibition at 10 µM was 100%.

Consider `O=C1c2ccnc(-c3ccc(F)cc3OCC(F)(F)F)c2CN1c1ncc(OC(F)F)cn1` [Example 99, 2-[5-(difluoromethoxy)pyrimidin-2-yl]-4-[4-fluoro-2-(2,2,2-trifluoroethoxy)phenyl]-2,3-dihydro-1H-pyrrolo[3,4-c]pyridin-1-one], for which the inhibition at 10 µM turned out to be 92%.

With `O=C1c2ccnc(-c3ccc(F)cc3OCC(F)(F)F)c2CN1c1cnc(OC(F)F)cn1` [Example 100, 2-[5-(difluoromethoxy)pyrazin-2-yl]-4-[4-fluoro-2-(2,2,2-trifiuoroethoxy)phenyl]-2,3-dihydro-1H-pyrrolo[3,4-c]pyridin-1-one], the inhibition at 10 µM worked out at 96%.

For `O=C1c2ccnc(-c3ccc(F)cc3OCc3ccccc3)c2CN1c1ccc(OC(F)F)nc1` [Example 101, 4-[2-(benzyloxy)-4-fluorophenyl]-2-[6-(difluoromethoxy)pyridin-3-yl]-2,3-dihydro-1H-pyrrolo[3,4-c]pyridin-1-one], the inhibition at 10 µM was determined as 79%.

As to `CN(C)C(=O)c1ccc(N2Cc3c(ccnc3-c3ccc(F)cc3OCC(F)(F)F)C2=O)cc1` [Example 102, 4-{4-[4-fluoro-2-(2,2,2-trifluoroethoxy)phenyl]-1-oxo-1,3-dihydro-2H-pyrrolo[3,4-c]pyridin-2-yl}-N,N-dimethylbenzamide], the inhibition at 10 µM came out at 90%.

For `O=C1c2ccnc(-c3ccccc3OCC3CC(F)(F)C3)c2CN1c1ccc(F)cc1` [Example 103, 4-{2-[(3,3-difluorocyclobutyl)methoxy]phenyl}-2-(4-fluorophenyl)-2,3-dihydro-1H-pyrrolo[3,4-c]pyridin-1-one], the inhibition at 10 µM was determined as 98%.

`O=C1c2ccnc(-c3ccncc3OCC(F)(F)F)c2CN1c1ccc(OC(F)F)cc1` [Example 104, 2-[4-(difluoromethoxy)phenyl]-4-[3-(2,2,2-trifluoroethoxy)pyridin-4-yl]-2,3-dihydro-1H-pyrrolo[3,4-c]pyridin-1-one]: the inhibition at 10 µM worked out at 99%.

`O=C1c2ccnc(-c3ccncc3OCC(F)(F)F)c2CN1c1ccc(OC(F)F)nc1` [Example 105, 2-[6-(difluoromethoxy)pyridin-3-yl]-4-[3-(2,2,2-trifluoroethoxy)pyridin-4-yl]-2,3-dihydro-1H-pyrrolo[3,4-c]pyridin-1-one]: the inhibition at 10 µM came to 96%.

As to `O=C1c2ccnc(-c3ccc(F)cc3OCC(F)(F)F)c2CN1c1ccc(OC2COC2)cc1` [Example 106, 4-[4-fluoro-2-(2,2,2-trifluoroethoxy)phenyl]-2-{4-[(oxetan-3-yl)oxy]phenyl}-2,3-dihydro-1H-pyrrolo[3,4-c]pyridin-1-one], the inhibition at 10 µM came out at 94%.

Take `CS(=O)(=O)c1ccc(N2Cc3c(ccnc3-c3ccc(F)cc3OCC(F)(F)F)C2=O)nc1` [Example 108, 4-[4-fluoro-2-(2,2,2-trifluoroethoxy)phenyl]-2-[5-(methanesulfonyl)pyridin-2-yl]-2,3-dihydro-1H-pyrrolo[3,4-c]pyridin-1-one]: the inhibition at 10 µM stood at 64%.

Turning to `CCS(=O)(=O)c1ccc(N2Cc3c(ccnc3-c3ccc(F)cc3OCC(F)(F)F)C2=O)cc1` [Example 110, 2-[4-(ethanesulfonyl)phenyl]-4-[4-fluoro-2-(2,2,2-trifluoroethoxy)phenyl]-2,3-dihydro-1H-pyrrolo[3,4-c]pyridin-1-one], the inhibition at 10 µM came to 97%.

With `Fc1ccc(N2Cc3ccnc(-c4ccc(F)cc4OCC(F)(F)F)c3C2)cc1` [Example 111, 2-(4-fluorophenyl)-4-[4-fluoro-2-(2,2,2-trifluoroethoxy)phenyl]-2,3-dihydro-1H-pyrrolo[3,4-c]pyridine], the inhibition at 10 µM is 92%.

In the case of `N#CCOc1cc(F)ccc1-c1nccc2c1CN(c1ccc(OC(F)F)nc1)C2=O` [Example 112, (2-{2-[6-(difluoromethoxy)pyridin-3-yl]-1-oxo-2,3-dihydro-1H-pyrrolo[3,4-c]pyridin-4-yl}-5-fluorophenoxy)acetonitrile], the inhibition at 10 µM is 98%.

Consider `COCCOc1cc(F)ccc1-c1nccc2c1CN(c1ccc(OC(F)F)nc1)C2=O` [Example 113, 2-[6-(difluoromethoxy)pyridin-3-yl]-4-[4-fluoro-2-(2-methoxyethoxy)phenyl]-2,3-dihydro-1H-pyrrolo[3,4-c]pyridin-1-one], for which the inhibition at 10 µM was determined as 66%.

Take `O=C1c2ccnc(-c3ccc(F)cc3OCc3ccccc3)c2CN1c1ccc(OC(F)F)cc1` [Example 114, 4-[2-(benzyloxy)-4-fluorophenyl]-2-[4-(difluoromethoxy)phenyl]-2,3-dihydro-1H-pyrrolo[3,4-c]pyridin-1-one]: the inhibition at 10 µM worked out at 99%.

`O=C1CC2=C(CN(c3ccc(F)cc3)C2=O)N(c2ccc(F)cc2OCC(F)(F)F)N1` [Example 115, 6-(4-fluorophenyl)-1-[4-fluoro-2-(2,2,2-trifluoroethoxy)phenyl]-6,7-dihydro-1H-pyrrolo[3,4-c]pyridazine-3,5(2H,4H)-dione]: the inhibition at 10 µM stood at 65%.

Regarding `O=C(c1ccc(-c2nccc3c2CN(c2ccc(OC(F)F)nc2)C3=O)c(OCC(F)(F)F)c1)N1CCC1` [Example 118, 4-[4-(azetidine-1-carbonyl)-2-(2,2,2-trifluoroethoxy)phenyl]-2-[6-(difluoromethoxy)pyridin-3-yl]-2,3-dihydro-1H-pyrrolo[3,4-c]pyridin-1-one], the inhibition at 10 µM was 96%.
